Test results published in the NIST ThermoML archive (doi:10.1016/j.jct.2018.03.007).

Assay: xn = mol fraction of the nth substance listed
Details: 100 kPa, Liquid; for speed of sound: Linear variable-path acoustic interferometer; for mass density: Vibrating tube method

CCn1cc[n+](C)c1.O=S(=O)([O-])O [1-ethyl-3-methylimidazolium hydrogen sulfate] + C[S+](C)[O-]
speed of sound [m/s], Frequency=2 MHz
Details	x1 = 0.0494	x1 = 0.1349	x1 = 0.2377	x1 = 0.3638	x1 = 0.5219	x1 = 0.6517	x1 = 0.7261	x1 = 0.8081	x1 = 0.9182	x1 = 1
298.15 K	1530.5	1600.5	1672.7	1746.9	1823.3	1875.5	1902	1928.7	1961	1982.8
303.15 K	1513.4	1582.9	1654.4	1728.2	1804.2	1856.1	1882.4	1909	1941.2	1962.9
308.15 K	1495.9	1564.8	1635.9	1709.3	1784.9	1836.6	1862.8	1889.3	1921.5	1943.1
313.15 K	1478.6	1547	1617.6	1690.5	1765.7	1817.1	1843.2	1869.6	1901.6	1923.2

mass density [kg/m3]
Details	x1 = 0.0494	x1 = 0.1349	x1 = 0.2377	x1 = 0.3638	x1 = 0.5219	x1 = 0.6517	x1 = 0.7261	x1 = 0.8081	x1 = 0.9182	x1 = 1
298.15 K	1128.82	1175.73	1219.12	1259.43	1297.19	1320.97	1332.42	1343.71	1357.03	1365.75
303.15 K	1124.11	1171.37	1214.91	1255.51	1293.61	1317.58	1329.14	1340.51	1353.89	1362.62
308.15 K	1119.4	1166.99	1210.85	1251.66	1290.03	1314.21	1325.9	1337.32	1350.73	1359.53
313.15 K	1114.68	1162.54	1206.72	1247.85	1286.51	1310.9	1322.64	1334.1	1347.61	1356.41

CCn1cc[n+](C)c1.O=S(=O)([O-])O [1-ethyl-3-methylimidazolium hydrogen sulfate] + CCO
speed of sound [m/s], Frequency=3 MHz
Details	x1 = 0.0281	x1 = 0.0878	x1 = 0.1779	x1 = 0.3378	x1 = 0.4731	x1 = 0.577	x1 = 0.6689	x1 = 0.7759	x1 = 0.8797	x1 = 1
298.15 K	1190.1	1289.8	1416.2	1577.8	1698.6	1780.2	1836.4	1893.6	1943.4	1982.8
303.15 K	1170.6	1267.3	1393.3	1558.4	1675.8	1755.7	1816.2	1871.9	1922.1	1962.9
308.15 K	1152.1	1245.3	1370.9	1538.6	1653	1731.4	1796	1850.2	1900.8	1943.1
313.15 K	1132.9	1222.8	1348	1516.6	1630.3	1707.9	1773.8	1828.5	1879.5	1923.2

mass density [kg/m3]
Details	x1 = 0.0281	x1 = 0.0878	x1 = 0.1779	x1 = 0.3378	x1 = 0.4731	x1 = 0.577	x1 = 0.6689	x1 = 0.7759	x1 = 0.8797	x1 = 1
298.15 K	829.67	910.66	1007.45	1129.95	1203.92	1248.74	1281.87	1314.38	1340.71	1365.75
303.15 K	825.5	906.7	1003.74	1126.52	1200.65	1245.56	1278.69	1311.18	1337.51	1362.62
308.15 K	821.28	902.7	999.98	1123.06	1197.38	1242.38	1275.52	1308	1334.34	1359.53
313.15 K	817	898.63	996.14	1119.54	1194.05	1239.13	1272.31	1304.78	1331.14	1356.41

CCn1cc[n+](C)c1.O=S(=O)([O-])O [1-ethyl-3-methylimidazolium hydrogen sulfate] + CCCO
speed of sound [m/s], Frequency=2 MHz
Details	x1 = 0.0519	x1 = 0.1097	x1 = 0.2473	x1 = 0.3301	x1 = 0.425	x1 = 0.5348	x1 = 0.6634	x1 = 0.816	x1 = 0.9035	x1 = 1
298.15 K	1272.3	1342.3	1486.2	1561.1	1640.8	1724.4	1808.4	1892	1937.7	1982.8
303.15 K	1254.7	1324	1467.1	1542	1621.3	1704.9	1788.3	1871.6	1917.9	1962.9
308.15 K	1237.1	1305.9	1448.3	1522.1	1601.4	1684.2	1767.3	1850.6	1898.1	1943.1
313.15 K	1219.7	1288.1	1429.1	1502.6	1581.7	1664.9	1747.8	1830.1	1878.1	1923.2

mass density [kg/m3]
Details	x1 = 0.0519	x1 = 0.1097	x1 = 0.2473	x1 = 0.3301	x1 = 0.425	x1 = 0.5348	x1 = 0.6634	x1 = 0.816	x1 = 0.9035	x1 = 1
298.15 K	859.54	918.5	1034.63	1091.59	1147.59	1202.62	1256.73	1310.71	1338.05	1365.75
303.15 K	855.59	914.64	1030.95	1088.01	1144.15	1199.35	1253.6	1307.54	1334.87	1362.62
308.15 K	851.62	910.8	1027.23	1084.39	1140.69	1196.07	1250.5	1304.42	1331.73	1359.53
313.15 K	847.65	906.93	1023.51	1080.78	1137.24	1192.77	1247.33	1301.31	1328.62	1356.41
